According to US6747058B1:
In brackets after ≈: the same amount, converted by molar mass.

Experiments:
[1] = Pharmacokinetics (tmax) after intravenous and nebulizer inhalation administration, dog; format: in vivo; conditions: for Tmax at 14 day / Tmax: blood; for Tmax at 14 day: multiple dose (14 day)
Protocol: (§1) Two animal species, rat and dog, are administered the formulation in a 14 day multiple dose inhalation study with a nebulizer. Results from the pharmacokinetic portion of the study indicate comparability between tmax values found for intravenous and inhaled delivery.

[2] = Pharmacokinetics (tmax) after intravenous and nebulizer inhalation administration, rat; format: in vivo; conditions: blood; for Tmax: single dose; for Tmax at 14 day: multiple dose (14 day)
Protocol: as §1

[3] = cited from earlier work

CCCCCc1cc(O)c2c(c1)OC(C)(C)[C@@H]1CCC(C)=C[C@@H]21
App. calc. tmax ([1]; IV, 1 mg/kg, single dose, tmax minus duration of exposure): 1.9 min
Tmax at 14 day ([1]; inhaled or intranasal, 2 mg/kg, inhalation, 2 mg/kg, 8 minutes exposure, read-out: Average tmax (converted)): 10.2 min
Tmax at 14 day ([1]; inhaled or intranasal, 2 mg/kg, inhalation, 2 mg/kg, 8 minutes exposure, tmax minus duration of exposure, read-out: App. calc. tmax (converted)): 2.2 min
Tmax ([1]; inhaled or intranasal, 2 mg/kg, inhalation, 2 mg/kg, 8 minutes exposure, single dose, read-out: Average tmax (converted)): 15.6 min
Tmax ([1]; inhaled or intranasal, 2 mg/kg, inhalation, 2 mg/kg, 8 minutes exposure, single dose, tmax minus duration of exposure, read-out: App. calc. tmax (converted)): 7.6 min
Tmax at 14 day ([1]; inhaled or intranasal, 5 mg/kg, inhalation, 5 mg/kg, 20 minutes exposure, read-out: Average tmax (converted)): 22.2 min
Tmax at 14 day ([1]; inhaled or intranasal, 5 mg/kg, inhalation, 5 mg/kg, 20 minutes exposure, tmax minus duration of exposure, read-out: App. calc. tmax (converted)): 2.2 min
Tmax at 14 day ([1]; inhaled or intranasal, 15 mg/kg, inhalation, 15 mg/kg, 60 minutes exposure, read-out: Average tmax (converted)): 66 min
Tmax at 14 day ([1]; inhaled or intranasal, 15 mg/kg, inhalation, 15 mg/kg, 60 minutes exposure, tmax minus duration of exposure, read-out: App. calc. tmax (converted)): 6 min
Tmax ([1]; iv, 1 mg/kg, IV, 1 mg/kg, single dose, read-out: Average tmax (converted)): 1.8 min
Tmax ([1]; iv, 1 mg/kg, IV, 1 mg/kg, single dose, tmax minus duration of exposure, read-out: App. calc. tmax (converted)): 1.8 min
Tmax ([2]; inhaled or intranasal, 0.5 mg/kg, inhalation, 0.5 mg/kg, 1.25 minutes exposure, read-out: Average tmax (converted)): 5.7 min
Tmax ([2]; inhaled or intranasal, 0.5 mg/kg, inhalation, 0.5 mg/kg, 1.25 minutes exposure, tmax minus duration of exposure, read-out: App. calc. tmax (converted)): 4.45 min
Tmax at 14 day ([2]; inhaled or intranasal, 2 mg/kg, inhalation, 2 mg/kg, 5 minutes exposure, read-out: Average tmax (converted)): 6 min
Tmax at 14 day ([2]; inhaled or intranasal, 2 mg/kg, inhalation, 2 mg/kg, 5 minutes exposure, tmax minus duration of exposure, read-out: App. calc. tmax (converted)): 1 min
Tmax ([2]; inhaled or intranasal, 4.6 mg/kg, inhalation, 4.6 mg/kg, 15 minutes exposure, read-out: Average tmax (converted)): 33.3 min
Tmax ([2]; inhaled or intranasal, 4.6 mg/kg, inhalation, 4.6 mg/kg, 15 minutes exposure, tmax minus duration of exposure, read-out: App. calc. tmax (converted)): 18.3 min
Tmax at 14 day ([2]; inhaled or intranasal, 5 mg/kg, inhalation, 5 mg/kg, 15 minutes exposure, read-out: Average tmax (converted)): 17.4 min
Tmax at 14 day ([2]; inhaled or intranasal, 5 mg/kg, inhalation, 5 mg/kg, 15 minutes exposure, tmax minus duration of exposure, read-out: App. calc. tmax (converted)): 2.4 min
Tmax at 14 day ([2]; inhaled or intranasal, 15 mg/kg, inhalation, 15 mg/kg, 45 minutes exposure, read-out: Average tmax (converted)): 46.2 min
Tmax at 14 day ([2]; inhaled or intranasal, 15 mg/kg, inhalation, 15 mg/kg, 45 minutes exposure, tmax minus duration of exposure, read-out: App. calc. tmax (converted)): 1.2 min
Tmax ([2]; iv, 2 mg/kg, IV, 2 mg/kg, read-out: Average tmax (converted)): 2.1 min
Tmax ([2]; iv, 2 mg/kg, IV, 2 mg/kg, tmax minus duration of exposure, read-out: App. calc. tmax (converted)): 2.1 min
solubility in water [3]: 3000 µg/mL (≈ 9.54 mM)
